Reference: patent publication US11376230B2 (priority 2011, dated 2022)
Read-outs that look alike come from different tables or passages of the source.

Tests used:
[1] = tested on: P. aeruginosa mature biofilm
From the text: (§1) The wild-type P. aeruginosa PAO1 used for the planktonic and biofilm experiments was obtained from the Pseudomonas Genetic Stock Center (www.pseudomonas.med.ecu.edu, strain PAO0001). The wild-type S. aureus 8325-4, used for planktonic and biofilm experiments was described by Novick, R. P. 1967. The following bacteria were obtained from the Department of Clinical Microbiology, Copenhagen University Hospital, Denmark: E. coli (wild type and clinical ESBL producing strains), S. aureus (wild type and clinical MRSA strains) and Klebsiella pneumoniae (clinical ESBL producing strain).
(§2) Two types of biofilm setups were used, micropore filter assay and a microtitter plate assay: • The microtitter plate assay is based on biofilms growing in microtiter dishes with AB minimal medium containing 0.3 mM glucose as described by O′ toole et al (1999). • The Micro-pore assay is based on biofilms growing on a micropore filter on AB minimal agar plates. The micropore filters are placed on top of an AB minimal agar plate. Bacteria are propagated on the micro-pore filters as spots of 20 μl bacterial suspension and incubated at 37° C. For a biofilm to develop the filters were transferred to a fresh AB minimal agar plate once after 24 hours. The biofilm were mature and ready for use after 48 hours incubation in total, at 37° C. Planktonic cultures were grown in shake flasks at 37° C. The microtitter plate assay for biofilm tolerance to sodium diacetate was assessed by exchanging the AB minimal medium of 24 h old biofilms with AB minimal medium supplemented with different concentrations of sodium diacetate.
(§3) To elucidate the efficacy of dry sodium diacetate on microbial biofilms of P. aeruginosa. Bacteria were propagated on a micropore filter for biofilm formation. The Micro-pore filters were placed on top of an LB-agar plate. Bacteria were spread on the micro-pore filters as spots and incubated at 37° C. For a biofilm to develop the filters were transferred to a fresh LB-agar plate once after 24 hours. The biofilm were mature and ready for use after 48 hours incubation in total, at 37° C.
(§4) After 48 hours NaHAc2 was added on top of the biofilm spot, either directly or between two pieces of gauze. The control was plain gauze. All treatments were incubated for 24 hours. The effect was evaluated by replication of the micro pore filter after treatment. The endpoint was growth or no growth of bacteria after the treatment.

[2] = tested on: Klebsiella pneumoniae (clinical ESBL producing strain) biofilm; conditions: dry sodium diacetate, same method as example 3
From the text: as §1, §2, §3, §4

[3] = tested on: S. aureus (wild type and clinical MRSA strains) biofilm; conditions: dry sodium diacetate, same method as example 3
From the text: as §1, §2, §3, §4

[4] = tested on: E. coli (wild type and clinical ESBL producing strains) biofilm
From the text: as §1, §2, §3, §4

P. aeruginosa biofilms = conditions: for Average CFU: 24 h treatment of 24 h old biofilm
From the text: as §1
For plating, Luria broth (LB) medium mix with 2.0% agar was used. For all experiments including bacterial biofilms, AB minimal medium supplemented with glucose was used except if different is mentioned. AB minimal medium consists of: A standard buffer system consisting of (NH4)2SO4 (15.1 mM), Na2HPO4.2H2O (33.7 mM) and KH2PO4 (22.0 mM. NaCl (0.051 M), MgCl2 (1 mM), CaCl2 (0.1 mM), and trace metals (100 μl/liter). The trace metal solution contained CaSa4.2H2O (200 mg/liter), FeSO4.7H2O (200 mg/liter), MnSO4.H2O (20 mg/liter), CuSO4.5H2O (20 mg/liter), ZnSO4.7H2O (20 mg/liter), CoSO4.7H2O (10 mg/liter), NaMoO4.H2O, and H3BO3 (5 mg/liter).
as §2
The antimicrobial effect was determined by plating the treated and non-treated biofilm. To ensure complete removal of all adhering bacteria the wells of the microtitter plate were washed mechanically.

[5] = tested on: bacterially infected chronic wounds; conditions: dressings with 0.2 mg/cm^2 or less on surface, with negative pressure wound therapy; initial results
Protocol: To elucidate the clinical potential of sodium diacetate in wound care human clinical trials are being performed in a hospital setting to test the efficacy of dressings incorporating sodium diacetate on bacterially infected chronic wounds.
Dressings are used employing 0.2 mg/cm^2 or less of sodium diacetate on the surface of the dressing material. Incorporating smaller amounts of sodium diacetate is tested incrementally. Initial trials are performed using negative pressure wound therapy in combination with dressings incorporating sodium diacetate as described herein. Trials are performed on test subjects having chronic wounds due to infection with for example P. aeruginosa and with reduced immune responses due to for example, drug abuse, diabetes, or obesity.

[6] = 24 hours old static biofilms in AB minimal medium

For CC(=O)O.CC(=O)[O-].[Na+] [sodium diacetate], the “growth or no growth of bacteria after treatment” value (from here on “growth or no growth of bacteria”) ([1]; NaHAc2 on top of 48 h biofilm spot, directly or between two pieces of gauze, 24 hours) was “completely eradicates”, the “growth or no growth of bacteria” value ([1]; treatment 1: dry between gauze) was “complete eradication” and the “growth or no growth of bacteria” value ([1]; treatment 2: between gauze soaked in wounds buffer) was “complete eradication”. The “growth or no growth of bacteria” value ([1]; treatment 3: foam soaked in wounds buffer) was “complete eradication”, the “growth or no growth of bacteria” value ([1]; treatment 4: dry) was “complete eradication” and the “eradication of biofilm infection” value [2] was “completely eradicated”. The “eradication of biofilm infection” value [3] was “completely eradicated”, the “growth or no growth of bacteria” value ([4]; between gauze soaked in wounds buffer (FIG. 4)) was “complete eradication” and the “growth or no growth of bacteria” value ([4]; dry between gauze (FIG. 4)) was “complete eradication”. The “eradication of biofilm infection” value ([4]; dry sodium diacetate, same method as example 3, wild type and clinical ESBL producing strains) was “completely eradicated”, the “growth or no growth of bacteria” value ([4]; foam soaked in wounds buffer (FIG. 4)) was “complete eradication” and the “Media pH” value (0.50% NaHAc2 (w/v) in AB minimal media) was 5.78. The “Media pH” value (0.75% NaHAc2 (w/v) in AB minimal media) was 5.31, the “Media pH” value (1.00% NaHAc2 (w/v) in AB minimal media) was 5.09 and the “Media pH” value (1.25% NaHAc2 (w/v) in AB minimal media) was 4.99. The “Media pH” value (1.50% NaHAc2 (w/v) in AB minimal media) was 4.91, the “Media pH” value (1.75% NaHAc2 (w/v) in AB minimal media) was 4.86 and the “Media pH” value (2.00% NaHAc2 (w/v) in AB minimal media) was 4.83. For the same compound, the “Media pH” value (2.25% NaHAc2 (w/v) in AB minimal media) was 4.80, the “Media pH” value (2.50% NaHAc2 (w/v) in AB minimal media) was 4.78 and the “Media pH” value (2.75% NaHAc2 (w/v) in AB minimal media) was 4.76. For the same compound, the “Media pH” value (3.00% NaHAc2 (w/v) in AB minimal media) was 4.74, the “concentration at which the pH value levels out” value (AB minimal media (FIG. 1)) was “around 1.5 g/L” and the “pH of aqueous AB minimal media” value (at 3 g/L of sodium diacetate (FIG. 1)) was about 4.75. For the same compound, the “Average CFU” value (P. aeruginosa biofilms; 0.25% NaHAc2 (w/v)) was 1.15E+09 CFU, the “Average CFU” value (P. aeruginosa biofilms; 0.50% NaHAc2 (w/v)) was 3.12E+08 CFU and the “Average CFU” value (P. aeruginosa biofilms; 0.75% NaHAc2 (w/v)) was 9.63E+07 CFU. For the same compound, the “Average CFU” value (P. aeruginosa biofilms; 1.00% NaHAc2 (w/v)) was 8.05E+06 CFU, the “Average CFU” value (P. aeruginosa biofilms; 1.25% NaHAc2 (w/v)) was 1.96E+05 CFU and the “Average CFU” value (P. aeruginosa biofilms; 1.50% NaHAc2 (w/v)) was 1.98E+03 CFU. For the same compound, the “Average CFU” value (P. aeruginosa biofilms; 1.75% NaHAc2 (w/v)) was 0 CFU, the “Average CFU” value (P. aeruginosa biofilms; 2.00% NaHAc2 (w/v)) was 0 CFU and the “Average CFU” value (P. aeruginosa biofilms; 2.25% NaHAc2 (w/v)) was 0 CFU. For the same compound, the “Average CFU” value (P. aeruginosa biofilms; 2.50% NaHAc2 (w/v)) was 0 CFU, the “Average CFU” value (P. aeruginosa biofilms; 2.75% NaHAc2 (w/v)) was 0 CFU and the “Average CFU” value (P. aeruginosa biofilms; 3% NaHAc2 (w/v)) was 0 CFU. The “concentration at which an effect of the salt is already seen” value (P. aeruginosa biofilms; [6]) was 0.25 % (W/V), the “concentration giving complete killing of the biofilm bacteria” value (P. aeruginosa biofilms; [6]) was 1.75 % (W/V) and the “concentration giving complete killing of the biofilm bacteria” value (P. aeruginosa biofilms; 24 hours old static biofilms in AB minimal medium, listed as NaHAc2) was ≥ 1.75 % (W/V). For the same compound, the killing of biofilm (P. aeruginosa biofilms; even the lowest concentrations of NaHAc2) was “partial killing”, the “infections of chronic wounds” value [5] was “eradicated” and the wound healing [5] was “accelerated”.
